Results as given in patent US20080234318A1, “Chemical Compounds” (priority 2005, published 2008).

These compounds were tested on HIV-1 (assay: HOS HIV-1 infectivity assay). Settings: Human immunodeficiency virus 1, BAL / IIIB, HOS cells expressing hCXCR4/hCCR5/hCD4/pHIV-LTR-luciferase, virus strain (Ba-L or IIIB) not given, read-out: Activity Level.
Assay type: cell-based
Description: Compounds were profiled against two HIV-1 viruses, the M-tropic (CCR5 utilizing) Ba-L strain and the T-tropic (CXCR4 utilizing) IIIB strain. Both viruses were propagated in human peripheral blood lymphocytes. Compounds were tested for there ability to block infection of the HOS cell line (expressing hCXCR4/hCCR5/hCD4/pHIV-LTR-luciferase) by either HIV-1 Ba-L or HIV-1 IIIB. Compound cytotoxicity was also examined in the absence of virus addition.
HOS cells (expressing hCXCR4/hCCR5/hCD4/pHIV-LTR-luciferase) were harvested and diluted in Dulbeccos modified Eagles media supplemented with 2% FCS and non-essential amino acid to a concentration of 60,000 cells/ml. The cells were plated into 96-well plates (100 ul per well) and the plates were placed in a tissue culture incubator (37° C.; 5% CO2/95% air) for a period of 24h.
Subsequently, 50 ul of the desired drug solution (4 times the final concentration) was added to each well and the plates were returned to the tissue culture incubator (37° C.; 5% CO2/95% air) for 1h. Following this incubation 50 ul of diluted virus was added to each well (approximately 2 million RLU per well of virus). The plates were returned to the tissue culture incubator (37° C.; 5% CO2/95% air) and were incubated for a further 96h.
Following this incubation the endpoint for the virally infected cultures was quantified following addition of Steady-Glo Luciferase assay system reagent (Promega, Madison, Wis.). Cell viability or non-infected cultures was measured using a CellTiter-Glo luminescent cell viability assay system (Promega, Madison, Wis.). All luminescent readouts are performed on a Topcount luminescence detector (Packard, Meridien, Conn.).

Row | Structure (SMILES) | IC50 [nM]
1 | CCNC(=O)NCc1c(CN(C)[C@H]2CCCc3cccnc32)nc2cccc(N3CCN(C)CC3)n12 [Example 39, N-Ethyl-N′-{[5-(4-methyl-1-piperazinyl)-2-({methyl[(8S)-5,6,7,8-tetrahydro-8-quinolinyl]amino}methyl)imidazo[1,2-a]pyridin-3-yl]methyl}urea] | < 100
2 | CNCc1c(CN(C)[C@H]2CCCc3cccnc32)nc2cccc(N3CCN(C)CC3)n12 [Example 19, (8S)—N-Methyl-N-{[3-[(methylamino)methyl]-5-(4-methyl-1-piperazinyl)imidazo[1,2-a]pyridin-2-yl]methyl}-5,6,7,8-tetrahydro-8-quinolinamine] | < 100
3 | CC(C)S(=O)(=O)NCc1c(CN(C)[C@H]2CCCc3cccnc32)nc2cccc(N3CCN(C)CC3)n12 [Example 36, N-{[5-(4-Methyl-1-piperazinyl)-2-({methyl[(8S)-5,6,7,8-tetrahydro-8-quinolinyl]amino}methyl)imidazo[1,2-a]pyridin-3-yl]methyl}-2-propanesulfonamide] | < 100
4 | CN1CCN(c2cccc3nc(CN(C)[C@H]4CCCc5cccnc54)c(CN4CCCC4)n23)CC1 [Example 12, (8S)—N-Methyl-N-{[5-(4-methyl-1-piperazinyl)-3-(1-pyrrolidinylmethyl)imidazo[1,2-a]pyridin-2-yl]methyl}-5,6,7,8-tetrahydro-8-quinolinamine] | < 100
5 | CN1CCN(c2cccc3nc(CN(C)[C@H]4CCCc5cccnc54)c(CN)n23)CC1 [Example 24, (8S)—N-{[3-(Aminomethyl)-5-(4-methyl-1-piperazinyl)imidazo[1,2-a]pyridin-2-yl]methyl}-N-methyl-5,6,7,8-tetrahydro-8-quinolinamine] | < 100
6 | CCNCc1c(CN(C)[C@H]2CCCc3cccnc32)nc2cccc(N3CCN(C)CC3)n12 [Example 20, (8S)—N-{[3-[(Ethylamino)methyl]-5-(4-methyl-1-piperazinyl)imidazo[1,2-a]pyridin-2-yl]methyl}-N-methyl-5,6,7,8-tetrahydro-8-quinolinamine] | < 100
7 | COc1ccc(NC(=O)NCc2c(CN(C)[C@H]3CCCc4cccnc43)nc3cccc(N4CCN(C)CC4)n23)cc1 [Example 43, N-[4-(Methyloxy)phenyl]-N′-{[5-(4-methyl-1-piperazinyl)-2-({methyl[(8S)-5,6,7,8-tetrahydro-8-quinolinyl]amino}methyl)imidazo[1,2-a]pyridin-3-yl]methyl}urea] | < 100
8 | CN1CCN(c2cccc3nc(CN(C)[C@H]4CCCc5cccnc54)c(CN4CCCCC4)n23)CC1 [Example 22, (8S)—N-Methyl-N-{[5-(4-methyl-1-piperazinyl)-3-(1-piperidinylmethyl)imidazo[1,2-a]pyridin-2-yl]methyl}-5,6,7,8-tetrahydro-8-quinolinamine] | < 100
